Measurements reported in US20150374718A1, “Zhankuic Acid A and Analogs thereof and Their Use as an Anti-Inflammatory Agent” (National Cheng Kung University, priority 2014, published 2015).

Columns and labels:
NO production = assay: Griess assay of nitrite (NO) in macrophage culture medium; assay type: cell-based, murine; details: ZAA 1 h, dose-dependent
Procedure: (§1) FIG. 1. ZAA inhibits the production of inflammation-related molecules in LPS- and IFN-γ-stimulated murine macrophages. […] Total cell lysates were subjected to immunoblotting for detecting COX2 and iNOS. Relative expression levels of COX2 and iNOS protein were quantified by densitometric analysis with ImageJ software and normalized according to the β-actin reference band. […] The presence of nitrite in the culture medium was analyzed by the Griess assay and used as an indication of NO levels (n=4; *p<0.05 and ***p<0.001 vs. LPS- or IFN-γ-induced cells). (C) Raw264.7 cells were cotransfected with pNFKB-Luc and pβ-actin-LacZ plasmids. […] Total cell lysates were harvested, and their luciferase activities were determined and normalized on the basis of β-galactosidase activities. Values are means±SD (n=4; *p<0.05 and **p<0.01 vs. LPS-stimulated cells). […] Numbers below the blots in D and those shown in the table below the blots in E represent the relative expression levels quantified by densitometric analysis with ImageJ software and normalized according to the β-actin reference bands. […]
C57BL/6 mice were injected intraperitoneally with 3% thioglycollate, and their peritoneal macrophages were collected 72 h later. […] The presence of nitrite (a metabolite of NO) in the culture medium was analyzed by the Griess assay (Sigma-Aldrich), as previously described (16).

[1] = test system: murine peritoneal macrophages; assay: Cell viability by MTS and SRB assays; assay type: cell-based; details: up to 30 μM for 72 h; resident or LPS-activated macrophages; listed as ZAA
Procedure: FIG. 6. ZAA is not cytotoxic to murine peritoneal macrophages. (A) Cells were incubated with various concentrations of ZAA for 72 h. Cell viability was determined by colorimetric tetrazolium (MTS) and sulphorhodamine B (SRB) assays. The absorbance was measured at 490 and 590 nm for MTS and SRB assays, respectively. […] Cell viability was determined by the SRB assay.
We first investigated the anti-inflammatory properties of ZAA purified from T. camphoratus. During inflammation, large amounts of pro-inflammatory mediators, NO, and prostaglandin E2 (PGE2) are generated by iNOS and COX2.

[2] = test system: NF-κB, MAPK, and Akt signaling pathways; assay: Immunoblot of NF-κB, MAPK and Akt signaling in LPS-stimulated RAW264.7 cells; assay type: cell-based, murine; details: ZAA 1 h, then LPS 30 min
Procedure: as §1, with “activities.” for “activities. Values are means±SD (n=4; *p<0.05 and **p<0.01 vs. LPS-stimulated cells).”
Cell lysates were analyzed by immunoblotting with primary antibodies against pIKKα/β, IkBα, pNF-κBp65, pERK, ERK, pJNK, JNK, pAkt, Akt, pp38, p38, and β-actin, followed by appropriate secondary antibodies Immunoreactive protein bands were detected using an enhanced chemiluminescence (ECL) kit (Pierce Biotechnology, Rockford, Ill.). […]

recombinant human MD-2 = target: T1, recombinant human MD-2 (Homo sapiens, UniProt Q9Y6Y9); assay: Native PAGE binding analysis with anti-MD-2 antibodies; details: MD-2 0.15 μg, 3 h at 37° C.
T1 construct: purchased R&D
T1 sequence (Q9Y6Y9 19-160): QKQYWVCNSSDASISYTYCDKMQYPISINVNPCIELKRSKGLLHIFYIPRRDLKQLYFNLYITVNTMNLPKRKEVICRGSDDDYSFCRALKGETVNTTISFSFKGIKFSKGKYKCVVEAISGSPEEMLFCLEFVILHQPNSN
Description: FIG. 2. ZAA interacts with the hydrophobic binding pocket of MD-2. […] The amino acids G1y110-Asn158 shown in magenta, which reside within the immunogenic peptide fragment of MD-2 amino acids 110-160, are around the ZAA-binding site in the ribbon model of MD-2. Gly110 and Asn158 are indicated by arrows. (B) Interactions involved in the binding of ZAA to the hydrophobic amino acid residues within the MD-2 binding pocket are shown. […] Similar results were obtained in three independent experiments.
Samples were subjected to native PAGE, and the levels of TLR4-associated or free MD-2 were detected by immunoblotting with two anti-MD-2 antibodies, rabbit polyclonal antibody against MD-2 amino acids 110-160 (abcam, Cambridge, Mass.) and mouse monoclonal antibody against MD-2 amino acids 2-160 (abcam). Signals were detected via ECL.

[3] = test system: LPS-induced TNF-α and IL-6 production; assay: ELISA of cytokines in LPS-treated RAW264.7 cells; assay type: cell-based, murine; details: ZAA 1 h, LPS 0.25 or 0.5 μg/mL
[4] = test system: LPS-induced TNF-α and IL-6 production; assay: Plasma cytokines in LPS-injected mice; assay type: in vivo; details: ZAA i.p. 30 min before LPS 4 mg/kg i.p., 6 h
LPS-induced lethality = assay: LPS-induced sepsis model (lethality); assay type: in vivo; details: C3H/HeN mice; ZAA 2 or 10 mg/kg i.p., LPS 20 mg/kg i.p.
Procedure: The mice were monitored every 2-4 h until all C3H/HeN mice in the ZAA-untreated and LPS-treated group expired.

human neutrophils = details: reference (9), cited from earlier work
[5] = test system: LPS-induced NO production; details: reference (10); cited from earlier work
[6] = test system: LPS-induced lung and renal injury; assay: LPS-induced lung and renal injury in mice; details: ZAA 20 mg/kg i.p., LPS 4 mg/kg i.p., 10 h
Procedure: After 10 h, mice were sacrificed, and their lung and kidney tissues were removed. […] (B) The number of infiltrated PMNs in each alveolus was observed by light microscopy (original magnification ×200). The number of PMNs was counted in four randomly chosen fields per slide for each mouse and normalized to the number of alveoli. […] Values shown in B-D are means ±SD (n=10; **p<0.01 and ***p<0.001).
The lung and kidney were embedded in paraffin, sectioned, and stained with hematoxylin and eosin. Serum samples were collected for determination of blood urea nitrogen (BUN) and serum creatinine levels.

S. choleraesuis = assay: S. choleraesuis-induced diarrhea model in mice
Procedure: (A and B) C57BL/6 mice that had been pretreated intraperitoneally with ZAA (2 or 10 mg/kg) or the vehicle for 30 min were orally administered with kanamycin-resistant S. choleraesuis (2×10^9 CFU/mouse). Diarrhea was scored after 2 days on a 0-3 scale (0=normal pellets, 1=slightly loose feces, 2=loose feces, and 3=watery diarrhea) (A). Body weight was recorded every 2 days for 2 weeks (n=9-12; **p<0.01 and ***p<0.001) (B). (C) Fecal samples were collected at 24-h intervals until 96 h after S. choleraesuis infection and assessed for viable bacterial CFU counts (n=10; **p<0.01 and ***p<0.001).
The pEGFP-N1 (ΔEGFP)-transformed S. choleraesuis (2×10^9 CFU/mouse) was orally administered to mice with or without oral pretreatment of ZAA (2 or 10 mg/kg). […] Fecal samples were collected at 24-h intervals until 96 h after S. choleraesuis infection. S. choleraesuis in the feces was quantified by plating serial dilutions of fecal samples on kanamycin-containing agar plates and counting colonies after overnight incubation at 37° C. Mice were monitored daily for symptoms of diarrhea and loss of body weight. Diarrhea was defined according to a diarrhea score of 0-3 (0=normal pellets, 1=slightly loose feces, 2=loose feces, and 3=watery diarrhea) as previously described (21).

[7] = TLR4 signaling-defective C3H/HeJ mice

C=C(CC[C@@H](C)[C@H]1CC[C@H]2C3=C(C(=O)C[C@]12C)[C@@]1(C)CCC(=O)[C@@H](C)[C@@H]1CC3=O)C(C)C(=O)O (some centres unmarked) [No. 1, Zhankuic acid A]
IFN-γ-induced NO production (NO production; then IFN-γ 50 ng/mL 24 h): inhibited
LPS-induced NO production (NO production; then LPS 0.5 μg/mL 24 h): inhibited
cytotoxic effects (MTS and SRB) [1]: did not exert any cytotoxic effects
LPS-induced phosphorylation of ERK, JNK, p38, and Akt [2]: inhibited
LPS-stimulated NF-κBp65 phosphorylation [2]: significantly prevented
recognition of anti-MD-2 antibodies (aa 110-160 and 2-160) to native MD-2 (recombinant human MD-2): reduced the recognition of both antibodies to native MD-2
LPS-induced TNF-α production ([3]; supernatant after 4 h): inhibited
LPS-induced IL-6 production ([3]; supernatant after 6 h): inhibited
plasma IL-6 production ([4]; C3H/HeN mice): significantly reduced
plasma TNF-α production ([4]; C3H/HeN mice): significantly reduced
plasma IL-6 production [4, 7]: a much weaker response
plasma TNF-α production [4, 7]: a much weaker response
protection against LPS-induced lethality (survival) (LPS-induced lethality): significantly protected
ROS production (human neutrophils; fMLP- or PMA-activated peripheral human neutrophils): inhibits
cytotoxicity (human neutrophils; human neutrophils): without exerting significant cytotoxicity
inflammatory responses by human neutrophils (human neutrophils): prevent inflammatory responses
LPS-induced NO production [5]: inhibiting
LPS-induced pulmonary accumulation of PMNs ([6]; C3H/HeN mice): significantly prevented
extent of LPS-induced glomerulonephritis ([6]; C3H/HeN mice): significantly reduced
BUN level [6]: markedly reduced
serum creatinine level [6]: markedly reduced
fecal bacterial level (S. choleraesuis; 96 h after bacterial infection, ZAA 10 mg/kg): undetectable
body weight loss (S. choleraesuis; C57BL/6 mice, ZAA 10 mg/kg): dramatically attenuated
time to return to normal body weight (S. choleraesuis; C57BL/6 mice, ZAA 10 mg/kg): ≤ 2 weeks
fecal bacterial load (S. choleraesuis; C57BL/6 mice, ZAA 2 or 10 mg/kg, 24-96 h, dose- and time-dependent): dramatically reduced
diarrhea score (S. choleraesuis; C57BL/6 mice, ZAA 2 or 10 mg/kg, scored after 2 days, 0-3 scale): reduced
